Assay [1] deals with Aspergillus fumigatus ATCC 28214. The experiment in a line: In vitro antifungal MIC, microtiter broth dilution. As to conditions: Aspergillus fumigatus, ATCC28214, 24 h, read-out: MIC values, A. fumigatus, 30°, 24 hours. On the technique in general: Dilution methods test growth across graded concentrations, often in twofold steps.
For assay [2], the system named is Pyricularia oryzae. The experiment in a line: whole plant or invertebrate. Format: in vivo. The note with it: Pyricularia oryzae, 120 h, read-out: disease control rating, Ex. E, 100 PPM.
Assay [3] deals with Venturia inaequalis. The experiment in a line: Example A apple scab. The assay is classed as in vivo. The note with it: 100 PPM, read-out: disease control rating, Ex. A. An outline of the steps:
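Spray application to run-off on apple seedlings; compound at 100 or 20 ppm in water with 250 ppm TREM 014 (polyhydric alcohol esters) and 6% acetone of final volume.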

Assay [4] concerns Erysiphe graminis f. sp. tritici. The experiment in a line: Example D wheat powdery mildew. Format: in vivo. The note with it: Blumeria graminis, 144 h; 100 PPM; read-out: disease control rating, Ex. D. An outline of the steps: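 Seedling wheat was treated by spraying to run-off; formulation used acetone as co-solvent (6% final) and TREM 014 surfactant at 250 ppm, with compound at 100 or 20 ppm.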

The subject of assay [5] is Rhizoctonia solani. The experiment in a line: Example F rice sheath blight. The note with it: Rhizoctonia solani, 144 h, 100 PPM; read-out: disease control rating, Ex. F. The assay is classed as in vivo. An outline of the steps:
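Foliar run-off spray, rice seedlings: compound at 100 or 20 ppm in aqueous 250 ppm polyhydric alcohol ester surfactant, acetone 6% v/v final.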

The subject of assay [6] is Candida albicans ATCC 11651. The experiment in a line: In vivo systemic Candida infection in mice, primary assay. The arrangement: species or system Candida albicans; CF-1 female mice. As to conditions: Candida albicans, 150 mg/kg per day, read-out: % Survival. The method in brief: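 CF-1 female mice (20 g, 10 per group) were infected IV with 0.2 ml of 1×10^7/ml C. albicans ATCC 11651, then given test compound subcutaneously at 50 or 150 mg/kg/day at 1 and 6 h post-infection and once daily for three more days. Survival was followed for 21 days against infected untreated mice; ≥70% protection at 14 days was scored active.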

In assay [7] the test system is Sclerotium rolfsii. The experiment in a line: Example M southern blight. The assay is classed as in vivo. As to conditions: Agroathelia rolfsii, 336 h; 5 kg/ha; read-out: disease control rating, Ex. M. On the procedure: […] Seeds and soil were then inoculated with a mixture of sand, cereal and mycelium of the fungus Sclerotium rolfsii, causal agent of sourthern blight, and incubated in a growth chamber at 30° C. for 14 days. Disease ratings were then made.

Assay [8] deals with YELLOW NUTSEDGE
The experiment in a line: Test C rice paddy. Format: in vivo, Cyperus esculentus. As to conditions: 21 days. The source says:
(§1) Sixteen cm diameter Airlite plastic pots were partially filled with Tama slit loam soil and the soil saturated with water. Japonica and Indica rice seedlings a the 2.0 to 2.5 leaf stage were transplanted into 1/3 of the pots. Into another third of the pots were transplanted seedling or sprouted tubers of water plantain (Alisma trivale), Scripus (Scirpus paludosus), Cyperus (Cyperus esculentus), and arrowhead (Sagittaria spp.). The remaining pots were planted with barnyardgrass (Echinochloa crusgalli) seeds and sprouted tubes of water chestnut (Eleocharis spp.). These weeds all represent major rice weeds or genera of weeds important in rice. Three to four days after planting, the water level was raised to 3 cm (about 1200 ml/pot) and maintained a this level throughout the test. Chemical treatments were applied directly to the paddy water, within 24 hours of raising the water, after being formulated in a nonphytotoxic solvent. The pots were maintained in the greenhouse.

For assay [9], the system named is WATER PLAINTAIN
The experiment in a line: Test C rice paddy. The assay is classed as in vivo, Alisma trivale. The note with it: 504 h, 21 days, read-out: plant response; for pest or weed control at 64 g/ha: 0064 G/HA; for pest or weed control at 125 g/ha: 0125 G/HA; for pest or weed control at 250 g/ha: 0250 G/HA; for pest or weed control at 500 g/ha: 0500 G/HA.
Description: as §1

Assay [10] has as its system SCIRPUS. The experiment in a line: Test C rice paddy. The assay is classed as in vivo, Scirpus paludosus. As to conditions: Bolboschoenus maritimus, 504 h, 21 days, read-out: plant response; for pest or weed control at 64 g/ha: 0064 G/HA; for pest or weed control at 125 g/ha: 0125 G/HA; for pest or weed control at 250 g/ha: 0250 G/HA; for pest or weed control at 500 g/ha: 0500 G/HA.
Description: as §1

Assay [11] relates to ARROWHEAD
The experiment in a line: Test C rice paddy. Format: in vivo, Sagittaria spp. As to conditions: Sagittaria, 504 h, 21 days, read-out: plant response; for pest or weed control at 64 g/ha: 0064 G/HA; for pest or weed control at 125 g/ha: 0125 G/HA; for pest or weed control at 250 g/ha: 0250 G/HA; for pest or weed control at 500 g/ha: 0500 G/HA.
Description: as §1

Assay [12] has as its system RICE INDICA EFF. The experiment in a line: Test C rice paddy. Format: in vivo. As to conditions: Oryza sativa, 504 h, 21 days, read-out: plant response; for pest or weed control at 64 g/ha: 0064 G/HA; for pest or weed control at 125 g/ha: 0125 G/HA; for pest or weed control at 250 g/ha: 0250 G/HA; for pest or weed control at 500 g/ha: 0500 G/HA.
Description: as §1

Assay [13] relates to Rhizoctonia solani. The experiment in a line: Example K cotton blight. The assay is classed as in vivo. The note with it: 336 h, 5 kg/ha, read-out: disease control rating, Ex. K. As for the experimental part: […] Seeds and soil were then inoculated with a mixture of sand, cereal and mycelium of the fungus Rhizoctonia solani, causal agent of cotton blight, and incubated in a growth chamber at 30° C. for 14 days. Disease ratings were then made.

Structures are written as SMILES. ≈ marks a conversion by molar mass, not a printed value. Where two headings read alike, the source gives them in different places.

As a reminder, the MIC is the lowest concentration that inhibits growth of the organism.

For the compound `C=C(c1ccccc1)C(O)(Cn1cncn1)c1ccc(F)cc1F` (stereo not drawn) [Example 52, 2-(2,4-Difluorophenyl)-3-phenyl-1-(1H-1,2,4-triazol-1-yl)-3-buten-2-ol], the MIC in assay [1] was 0.4 µg/mL (≈ 1.22 µM). Also, the pest or weed control at 100 ppm in assay [2] was determined as 93%; in assay [3] it was 100%; in assay [4], 94%; in assay [5], 81%. For the same compound, the responders at 150 mg/kg was determined as 100% in [6] (ATCC11651, 168 h, day 7); 100% in [6] (ATCC11651, 336 h, day 14); 90% in assay [6] (ATCC11651, 504 h, day 21). In assay [7], the pest or weed control at 5000 g/ha was determined as 0%.

As for `C=C(c1ccc(Cl)cc1Cl)C(O)(Cn1cncn1)c1ccccc1F` (stereo not drawn) [Example 107], the plant response in assay [8] (0064 G/HA) is on record as 0; in assay [8] (0125 G/HA) it was 0; in [8] (0250 G/HA), 50; in [8] (0500 G/HA) it was 30; in [8] (1000 G/HA), 95. Besides, the pest or weed control at 64 g/ha in assay [9], in assay [10], in assay [11] and in assay [12] was 0% in each case. The pest or weed control at 125 g/ha in assay [9], in assay [10], in assay [11] and in assay [12] was 0% throughout. Besides, the pest or weed control at 250 g/ha was 0% in assay [9], 60% in assay [10], 0% in [11] and 30% in assay [12]. Moreover, the pest or weed control at 500 g/ha came to 60% in assay [9], 80% in assay [10], 95% in assay [11] and 40% in [12]. Besides, the pest or weed control at 1000 g/ha in assay [9] stood at 80%; in assay [10] it was 80%; in [11], 70%; in assay [12], 50%.

For `C=C(c1ccc(F)cc1)C(O)(Cn1cncn1)c1ccc(F)cc1F` (stereo not drawn) [Example 4, 2-(2,4-Difluorophenyl)-3-(4-fluorophenyl)-1-(1H-1,2,4-triazol-1-yl)-3-buten-2-ol], the pest or weed control at 5000 g/ha in assay [13] and in [7] was 0% in each case. The MIC in assay [1] stood at 0.8 µg/mL (≈ 2.32 µM). Moreover, the pest or weed control at 100 ppm in [2] was determined as 96%; in [3] it was 100%; in assay [4], 100%; in assay [5] it was 100%. For the same compound, the responders at 150 mg/kg in [6] (ATCC11651, 168 h, day 7) came out at 100%; in [6] (ATCC11651, 336 h, day 14) it was 50%.

In the case of `C=C(c1ccccc1)C(O)(Cn1cncn1)c1ccc(Cl)cc1` (stereo not drawn) [Example 51, 2-(4-Chlorophenyl)-3-phenyl-1-(1H-1,2,4-triazol-1-yl)-3-buten-2-ol], the MIC in assay [1] came out at 3.2 µg/mL (≈ 9.82 µM). The pest or weed control at 100 ppm in assay [2] was 0%; in [3], 100%; in assay [4] it was 100%; in [5], 100%. Besides, the responders at 150 mg/kg in assay [6] (ATCC11651, 168 h, day 7) came out at 100%; in assay [6] (ATCC11651, 336 h, day 14), 100%; in assay [6] (ATCC11651, 504 h, day 21) it was 80%.

Turning to `C=C(c1ccc(F)cc1)C(O)(Cn1cncn1)c1ccccc1F` (stereo not drawn) [Example 644], in assay [13], the pest or weed control at 5000 g/ha was 0%. Moreover, the minimal inhibitory concentration (MIC) in assay [1] worked out at 0.4 µg/mL (≈ 1.22 µM). Further, the pest or weed control at 100 ppm in [2], in [3], in assay [4] and in [5] was 100% in each case. Further, the responders at 150 mg/kg stood at 80% in assay [6] (ATCC11651, 168 h, day 7); 70% in [6] (ATCC11651, 336 h, day 14); 50% in assay [6] (ATCC11651, 504 h, day 21).

As to `C=C(c1ccccc1)C(O)(Cn1cncn1)c1ccc(Cl)cc1Cl` (stereo not drawn) [Example 50, 2-(2,4-Dichlorophenyl)-3-phenyl-1-(1H-1,2,4-triazol-1-yl)-3-buten-2-ol], the plant response in assay [8] (0064 G/HA) worked out at 0; in [8] (0125 G/HA), 0; in assay [8] (0250 G/HA), 0; in [8] (0500 G/HA), 30; in assay [8] (1000 G/HA) it was 50. Also, the minimal inhibitory concentration (MIC) in [1] was 0.8 µg/mL (≈ 2.22 µM). The pest or weed control at 100 ppm turned out to be 86% in assay [2], 100% in assay [3], 95% in assay [4] and 93% in assay [5]. Besides, the pest or weed control at 64 g/ha in [9], in assay [10], in assay [11] and in assay [12] was 0% in each case. For the same compound, the pest or weed control at 125 g/ha came to 0% in assay [9], 0% in assay [10], 0% in assay [11] and 40% in assay [12]. In addition, the pest or weed control at 250 g/ha in [9] is 0%; in [10], 0%; in assay [11], 0%; in assay [12] it was 30%. Moreover, the pest or weed control at 500 g/ha in assay [9] is 0%; in assay [10] it was 0%; in [11], 30%; in assay [12], 70%. For the same compound, the pest or weed control at 1000 g/ha in [9] stood at 0%; in assay [10], 0%; in assay [11] it was 50%; in [12] it was 80%. In addition, the responders at 150 mg/kg in [6] (ATCC11651, 168 h, day 7) was 100%; in assay [6] (ATCC11651, 336 h, day 14) it was 90%; in assay [6] (ATCC11651, 504 h, day 21), 50%.
